pIC50: −log10 of the molar value. One block for each compound: values may come before it.
Assays:
MmPDE5A3 [1] = target: T1, MmPDE5A3 (Mus musculus, UniProt Q8CG03); assay: [3H]cGMP hydrolysis assay; also spectrophotometric thiol titration and native PAGE; assay type: biochemical; design: gene Pde5a; full-length MmPDE5A3 isoform (823 amino acids common to the three isoforms), 3XFLAG tag
MmPDE5A3 [2] = target: T1, MmPDE5A3; design: gene Pde5a
MmPDE5A3 [3] = target: T1, MmPDE5A3; assay: native PAGE conformational shift; [3H]cGMP hydrolysis; added protection of Cys with sildenafil; assay type: binding; design: gene Pde5a; full-length MmPDE5A3 isoform (823 amino acids common to the three isoforms), 3XFLAG tag

pIC50 (MmPDE5A3 [1]): ~4.52
Structure (SMILES): O=C(O)c1cc(SSc2ccc([N+](=O)[O-])c(C(=O)O)c2)ccc1[N+](=O)[O-] [DTNB, 5,5-dithio-bis-(2-nitrobenzoic acid)]

Structure (SMILES): CCCc1nn(C)c2c(=O)[nH]c(-c3cc(S(=O)(=O)N4CCN(C)CC4)ccc3OCC)nc12 [Sild, sildenafil]
native PAGE conformational shift and protection of Cys from DTNB titration (MmPDE5A3 [2]): the reactive Cys were close to the active site and were shielded by the inhibitor

Structure (SMILES): Nc1nc2c(ncn2[C@@H]2O[C@@H]3COP(=O)(O)O[C@H]3[C@H]2O)c(=O)[nH]1 [cGMP]
native PAGE conformational shift; [3H]cGMP hydrolysis; added protection of Cys w (MmPDE5A3 [3]): the conformation of D3 was also the main outcome of the binding of the substrate and inhibitor (cGMP and sildenafil

Source: publication PMC9862819, “Structural Characterization of Murine Phosphodiesterase 5 Isoforms and Involvement of Cysteine Residues in Supramolecular Assembly” (International Journal of Molecular Sciences, 2023)
